Data reported in patent publication US20230135608A1 (CURACLE CO., LTD., priority 2021, published 2023).
Structures can show the parent of a compound that is named as a salt.

Legend:
[1] = cited from earlier work
[2] = tested on: streptozotocin (STZ, 150 mg/kg)-induced diabetic nephropathy mouse model; test: UUO renal fibrosis and streptozotocin-induced diabetic nephropathy mouse models; assay type: in vivo; settings: UUO and STZ (150 mg/kg) mouse models
Protocol: As a result, it was confirmed that a dose of 25 mg/kg was effective for diabetic nephropathy. When the dose confirmed in the animal model is converted into HED (Human Equivalent Dose), it is calculated as follows. HED=Animal dose in mg/kg×{Animal weight in kg/Human weight in kg}×60 kg=25 mg/kg×0.08×60 kg=120 mg

[3] = tested on: rat renal fibroblast cell line (NRK-49F); settings: cited from earlier work
[4] = tested on: RMCs and rat glomerular mesangial cells; settings: cited from earlier work
AD-293 cells = settings: cited from earlier work
NRK-49F and RMC cells = settings: cited from earlier work
Nrf2 = settings: cited from earlier work
NRK-49F cells = settings: DMF 40 μmol/1, semi-quantitative RT-PCR; cited from earlier work
[5] = tested on: UUO-induced renal fibrosis model; settings: cited from earlier work
[6] = tested on: TGF-β/Smad signaling and ECM expression; settings: chemical inhibitor of NQO1 or HO-1 added to DMF; cited from earlier work

## COC(=O)/C=C/C(=O)O [MMF, monomethyl fumarate]
[1]; 24 hours after administration of the drug
  detection of MMF after administration: not detected 24 hours after administration
[1]; in vivo
  elimination half-life of MMF: about 1 hour
[1]; repeated administration
  accumulation of MMF in the body: does not accumulate in the body even after repeated administration

## COC(=O)/C=C/C(=O)OC [DMF, Dimethyl fumarate]
[2]
  dose effective for diabetic nephropathy: 25 mg/kg
[3]; 24 hours of TGF-β treatment
  collagen type 1 induced by TGF-β (mRNA and protein): dose-dependently inhibit
[3]
  TGF-β-mediated expression of PAI-1, a-SMA, and fibronectin mRNA and protein: inhibited the TGF-β-mediated expression of PAI-1, a-SMA, and fibronectin mRNA and protein dose-dependently
[4]
  TGF-β-induced expression of PAI-1 protein: inhibitory effect
AD-293 cells; AD-293 cells, PAI-1-Luc reporter
  activity of the PAI-1 promoter induced by TGF-β: inhibited
AD-293 cells; reporter with 9 copies of the Smad3 binding site
  activity of the (CAGA)9MLP-Luc promoter induced by TGF-β or ALK5: inhibited
NRK-49F and RMC cells
  Smad3 phosphorylation induced by TGF-β: inhibited
Nrf2; NRK-49F cells
  Nrf2 protein expression: sharp increase
  nuclear accumulation of Nrf2: induced the nuclear accumulation of Nrf2 dose-dependently
Nrf2; RMC cells
  expression of Nrf2 protein: rapidly increased
Nrf2; after DMF treatment
  expression of p62: increased 6 h after the DMF treatment and up to 12 hours thereafter
NRK-49F cells
  expression of NQO1 and HO-1: increased
[5]
  expression of collagen type I, fibronectin, PAI-1 and α-SMA related to fibrosis: decreased the expression of collagen type I, fibronectin, PAI-1 and α-SMA
  expression of p-Smad3 increased by UUO: decreased the expression of p-Smad3

## COC1=CC(=O)c2c(c(COc3ccc([N+](=O)[O-])cc3)c(C)n2C)C1=O [ES936]
[6]
  reversal of the inhibitory effect of DMF on the TGF-β/Smad signaling and ECM expression: did not reverse
